Source: patent publication US20230189803A1, “COMPOSITIONS CONTAINING ORGANIC ACIDS AND THEIR ESTERS TO PREVENT MOLD CONTAMINATION IN ANIMAL FEED” (KEMIN INDUSTRIES, INC., priority 2021, published 2023)

Tests used:
Assay type in all cases: cell-based
mold [1] = experiment: CO2 study in barley samples, dose response of propionic acid esters as mold inhibitors (Example 9); conditions: barley 20.2% moisture
Description: Materials. Barley was procured from a local supplier.
Efficacy. The moisture level of barley was determined before the start of the experiments4. The moisture level of the barley samples was adjusted to 20.2+/−0.5% by the addition of tap water. The barley samples, with the adjusted moisture content, were afterwards treated with the different extracted esters at different dose levels (0.02 mol/kg, 0.04 mol/kg, 0.06 mol/kg and 0.08 mol/kg). The untreated barley samples and samples treated with propionic acid (0.02 mol/kg-0.08 mol/kg) were included as controls. All barley samples were collected in closed plastic containers for evaluation of the CO2-production. The samples were stored at 25° C. The CO2-production in the headspace was monitored regularly during a 3-month period using the Edinburgh sensor Guardian NG. Three replicates were analyzed for each treatment.
(§1) Statistical analysis. To determine significant differences in CO2-values values (p<0.05), repeated measures analysis was performed by method of General Linear Models procedure (StatGraphics Centurion XV). The repeated measures statistical treatment of results was used because it can be used when change over time is assessed. Where significant differences resulted, Multiple Range Test was used to separate the means.

mold [2] = experiment: CO2 study in soybean meal samples (Example 13); conditions: 0.06 mol/kg, after one month of storage
Description: Efficacy on soybean meal. FIGS. 18 and 19 show the CO2 production (%) of the untreated soybean meal samples compared to the soybean meal samples treated with ester 1 and propionic acid at a dosage of 0.06 and 0.08 mol/kg, respectively. In the untreated samples, a fast increase in CO2 level was measured within the first days and the CO2 value stayed around 20% during the whole course of the trial. […] Samples treated with ester 1 and propionic acid at a dosage of 0.08 mol/kg were still completely stable after 84 days.

mold [3] = experiment: CO2 study in barley samples, propylene glycol esters compared with other esters (Example 10); conditions: barley 19.8% moisture, 0.02-0.08 mol/kg, molar basis
Description: as §1, with “Materials. The moisture level of barley samples was increased till 20.2%. [table] Statistical” for “Statistical”, “CO2-values” for “CO2-values values”

SMILES	CO2 increase compared to the esters (mold [1]; 0.06 mol/kg)	storage time for which samples stay stable / after which CO2 starts increasing (mold [1]; 0.08 mol/kg) [days]	CO2 levels during storage (mold [2])	efficacy in controlling mold growth (CO2 evolution), comparative (mold [3])
CCC(=O)O [propionic acid]	CO2 increased faster	40	CO2 levels started to increase	
CC(=O)O [acetic acid]				less effective in controlling mold growth compared to propionic acid
